Test results reported in US7008621B2, “Regulation of apoptosis in aquatic organisms by aquabirnavirus” (Academia Sinica, priority 1999, dated 2006).
Entries after “also recorded” stand apart in the source; their conditions may differ.

Assays:
Mcl-1 protein = assay: Prevention of down-regulation of Mcl-1 protein expression by IPNV, Western blot; type: cell-based, Chinook salmon; conditions: 16 h
Protocol: (§1) After adding protein synthesis inhibitor, serine proteinase inhibitors, tyrosine kinase inhibitors and a cation chelator, CHSE-214-EGFP cells were infected with IPNV (MOI of 1) then incubated for 16 h at 18° C. Samples were electrophoresed on a 12% SDS-polyacrylamide gel and electroblotted to a nitrocellulose membrane. Antigen-specific signals were detected with a rabbit anti-EI-S virion antiserum (A) or with a rabbit anti-human Mcl-1 antiserum (Pharmingen) (B) and with a mouse monoclonal IgG antibody directed against mouse actin (Chemicon) (C). (A) Lane 1, normal CHSE-214 cell lysate; lane 2, IPNV infected cell lysate at 16 h postinfection; lanes 3–8, 30 μg of cell lysate, to which was added cycloheximide (100 μg/ml), aprotinin (400 μg/ml), leupeptin (400 μg/ml), genistein (100 μg/ml), tyrphostin (100 μg/ml) and EDTA (2 mM), followed by IPNV infection and incubated cells for 16 h, respectively. (B,C) The nitrocellulose membrane from (A) was stripped and reprobed with Mcl-1 or an actin antibody, respectively.
(§2) About 10^5 cells/ml were seeded on a 60-mm. petri dish for growth for more than 20 h. Monolayers were rinsed twice with phosphate-buffered saline (PBS). Control cells or cells that received virus at a MOI of 1 were incubated for 0, 2, 4, 6, 8, 10 and 24 h. At the end of each incubation time the culture medium was aspirated. The cells were washed with PBS and then lysed in 0.3 nil lysis buffer [10 mM Tris base, 20% glycerol, 10 mM sodium dodecyl sulfate (SDS), 2% β-mercaptoethanol (P-ME), pH 6.8].
(§3) Proteins were separated by SDS-polyacrylamide gel electrophoresis (Laemmli, 1970), electroblotted, and subjected to immunodetection as described by Kain et al. (1994). Blots were incubated with a 1:1500 dilution of anti-human Mcl-1 polyclonal antibodies (Pharmingen) or a 1:7500 dilution of a peroxidase-labeled goat anti-rabbit conjugate (Amershan). Chemi-luminescent detection was performed according to the instructions provided with the Western Exposure Chemiluminescent Dectection System (Amershan). Chemiluminescent signals were imaged by exposure to Kodak XAR-5 film (Eastman Kodak, Rochester, N.Y., USA). Primary (Mcl-1) and secondary antibodies (peroxidase-labeled goat anti-rabbit conjugate) were stripped from blots by incubation in stripping buffer containing 62.5 mM Tris-HCI (pH 6.8), 3.0% (w/v) SDS and 50 mM 1,4-dithiothreitol for 30 min at 55° C. with gentle shaking. The blots were then washed four times for 10 min each time in PBS containing 0.1% (v/v) Tween 20 and reprobed with mouse actin monoclonal antibody (1/1500, Chemicon) and a 1:7500 dilution of a peroxidase-labeled sheep anti-mouse conjugate (Amersham).
(§4) At the end of the incubation period, cells were harvested and the samples were analyzed by Western blot method.

[1] = tested on: CHSE-214 cells infected with IPNV E1-S; assay: DNA internucleosomal cleavage induced by IPNV, agarose gel electrophoresis; type: cell-based, Chinook salmon; conditions: 16 h postinfection
Protocol: Lane 2: DNA isolated from uninfected CHSE-214 cells as a negative control. Lane 3: cells infected for 16 h with an MOI of 1 of E1-S, respectively, at 16 h postinfection. Lanes 6 and 7: CHSE-214 cells treated with aprotinin (400 μg/ml) in the absence and presence of infection by an MOI of 1 of E1-S, respectively, at 16 h postinfection. Lanes 8 and 9: CHSE-214 cells treated with leupeptin (400 μg/ml) in the absence and presence of infection by an MOI of 1 of E1-S, respectively, at 16 h postinfection. Lanes 10 and 11: CHSE-214 cells treated with genistein (100 μg/ml) in the absence and presence of infection by an MOI of 1 of E1-S, respectively; at 16 h postinfection. Lanes 12 and 13: CHSE-214 cells treated with tyrphostin (100 μg/ml) in the absence and presence of infection by an MOI of 1 of E1-S, respectively, at 16 h postinfection. Lanes 14 and 15: CHSE-214 cells treated with 2 mM EDTA in the absence and presence of infection by an MOI of 1 of E1-S, respectively, at 16 h postinfection. All samples were electrophoresed through 1.2% agarose gels and visualized by ethidium bromide staining. Lane 1 contains the molecular weight marekers used in the gel (1 kb DNA ladder from MBI for sizing linear fragments ranging in size from 500 bp to […]).
About 10^5 cells per ml were seeded on a 60-mm-diameter petri dish and allowed to grow for more than 20 h. The cell monolayers received virus at an MOI of 1.0 and were incubated for 8 h. Uninfected control cells were also incubated for 8 h. The two groups were used for DNA fragmentation studies. At the end of incubation, the cells were lysed with lysis buffer (10 mM Tris-HCl, 0.25% Triton X-100, 1 mM EDTA, pH 7.4). After treatment with phenol-chloroform-isoamyl alcohol (25:24:1), the DNA was precipitated in the presence of 0.3 M sodium acetate and cold absolute ethanol at −70° C. for 2 h and then resuspended in 10 mM Tris-HCl (pH 7.4)−1 mM EDTA. […]

[2] = tested on: CHSE-214-EGFP cells infected with IPNV; assay: EGFP release (membrane integrity) Western blot after drug pre-treatment and IPNV infection; type: cell-based, Chinook salmon; conditions: 16 h
Protocol: Protein synthesis inhibitors, serine proteinase inhibitors, tyrosine kinase inhibitors, and a cation chelator were added to CHSE-214-EGFP cells before infection with IPNV (MOI of 1). After infection, the cells were incubated for 16 h. Samples were electrophoresed on a 12% SDS-polyacrylamide gel and electroblotted to a nitrocellulose membrane. Antigen-specific signals were detected with either rabbit anti-GFP serum (A and C) or a mouse IgG monoclonal antibody directed against actin (B). The chemiluminescent signal was imaged on Kodak XAR-5 film by using a 5-min (A), a 1-min (B), or a 30-min (C) exposure. (A) Lanes: 1, 0.2 μg of recombinant wild-type GFP as a positive control; 2, normal CHSE-214-EGFP cell lysate; 3, 30 μg of cell lysate protein corresponding to IPNV infection; 4–9, 30 μg of cell lysate protein corresponding to pre-treatment with cycloheximide (CHX) (100 μg/ml), aprotinin (400 μg/ml), leupeptin (400 μg/ml), genistein (100 μg/ml), tyrphostin (100 μg/ml), and EDTA (2 mM) and then followed by virus infection for 16 h, respectively. (B) The nitrocellulose membrane from panel A was stripped and reprobed with an actin antibody. (C) Lanes: 1, 100 ng of wide-type GFP; 2, 30 μg of supernatant medium protein from normal CHSE-214 cells; 3, 30 μg of supernatant medium protein from IPNV-infected cells at 16 h p.i. 4–9, 30 μg of supernatant medium protein corresponding to treatment with cycloheximide (CHX) (100 μg/ml), aprotinin (400 μg/ml), leupeptin (400 μg/ml), genistein (100 μg/ml), tyrphostin (100 μg/ml), and EDTA (2 mM) and then followed by virus infection for 16 h, respectively.
About 10^5 cells per ml were seeded on a 60-mm-diameter petri dish and allowed to grow for more than 20 h. The cell monolayers were rinsed twice with phosphate-buffered saline (PBS), after which they were infected at an MOI of 1 and incubated for 0, 2, 4, 6, 8, 10, 12, and 24 h post infection (p.i.). Uninfected control cells were also incubated for the same periods of time. At the end of each incubation time, the culture medium was aspirated. The cells were washed with PBS and then lysed in 0.3 ml of lysis buffer (10 mM Tris base, 20% glycerol, 10 mM sodium dodecyl sulfate [SDS], 2% β-mercaptoethanol, pH 6.8).
Proteins were separated by SDS-polyacrylamide gel electrophoresis, electroblotted, and subjected to immunodetection as described by Kain et al. (1994), Bio Techniques, 17:982–987. Blots were incubated with a 1:7,500 dilution of an immunoglobulin fraction (Clontech) and a 1:1,500 dilution of a peroxidase-labeled goat anti-rabbit conjugate (Amersham). Chemilumine-scence detection was performed in accordance with the instructions provided with the Western Exposure Chemiluminescent Detection System (Amersham). Chemiluminescent signals were imaged by exposure of Kodak XAR-5 film (Eastman Kodak, Rochester, N.Y.). Stripping and reprobing of the Western blot and removal of the primary and secondary antibodies from blot were achieved by incubation in stripping buffer containing 62.5 mM Tris-HCl (pH 6.8), 3.0% (wt/vol) SDS, and 50 mM 1,4-dithiothreitol for 30 min at 55° C. with gentle shaking. The blot was washed three times in PBS containing 0.1% (vol/vol) Tween 20 for 10 min each time and reprobed with antibodies beginning at the membrane blocking step.
At the end of the incubation period, cells were harvested and samples were analyzed by Western blotting.

IPNV E1-S = assay: Blocking of viral replication / viral protein expression, Western blot with anti-E1-S virion antiserum; type: cell-based, infectious pancreatic necrosis virus; conditions: 16 h
Protocol: as §1, §2, §3, §4

[3] = 400 μg/ml before IPNV infection
[4] = 400 μg/ml added before IPNV infection (MOI 1)

## C[C@@H]1C[C@@H]([C@H](O)CC2CC(=O)NC(=O)C2)C(=O)[C@@H](C)C1 [CHX, cycloheximide]
Mcl-1 protein; 10 μg/ml before IPNV infection
  prevention of down-regulation of Mcl-1 protein expression: helped to maintain Mcl-1 expression level
Mcl-1 protein; 10 μg/ml before IPNV infection, listed as cyclohexamide
  prevention of down-regulation of Mcl-1 protein expression: partially prevented down-regulation of Mcl-1 protein expression
[1]; 10 μg/ml before IPNV infection (MOI 1)
  induction of DNA internucleosomal cleavage by IPNV: blocked the induction of DNA internucleosomal cleavage
[2]; 10 μg/ml added before IPNV infection (MOI 1)
  prevention of EGFP release: completely prevented EGFP release
IPNV E1-S; 10 μg/ml added to CHSE-214 cells before IPNV infection
  viral replication / viral protein expression: blocked viral protein expression
IPNV E1-S; 10 μg/ml added to CHSE-214 cells before IPNV infection, listed as cyclohexamide
  viral replication / viral protein expression: viral replication was prevented

## O=C(O)CN(CCN(CC(=O)O)CC(=O)O)CC(=O)O [EDTA]
Mcl-1 protein; 2 mM before IPNV infection
  prevention of down-regulation of Mcl-1 protein expression: partially prevented down-regulation of Mcl-1 protein expression; also recorded: helped to maintain Mcl-1 expression level
[1]; 2 mM before IPNV infection (MOI 1)
  induction of DNA internucleosomal cleavage by IPNV: minor internucleosomal cleavage; also recorded: blocked the induction of DNA internucleosomal cleavage
[2]; 2 mM added before IPNV infection (MOI 1)
  prevention of EGFP release: completely prevented EGFP release
IPNV E1-S; 2 mM added to CHSE-214 cells before IPNV infection
  viral replication / viral protein expression: viral replication was prevented; also recorded: blocked viral protein expression

## O=c1c(-c2ccc(O)cc2)coc2cc(O)cc(O)c12 [genistein]
Mcl-1 protein; 100 μg/ml before IPNV infection
  prevention of down-regulation of Mcl-1 protein expression: partially prevented down-regulation of Mcl-1 protein expression; also recorded: helped to maintain Mcl-1 expression level
[1]; 100 μg/ml before IPNV infection (MOI 1)
  induction of DNA internucleosomal cleavage by IPNV: blocked the induction of DNA internucleosomal cleavage
[2]; 100 μg/ml added before IPNV infection (MOI 1)
  prevention of EGFP release: partially prevented EGFP release
IPNV E1-S; 100 μg/ml added to CHSE-214 cells before IPNV infection
  viral replication / viral protein expression: viral replication was prevented; also recorded: blocked viral protein expression

## CC(=O)N[C@@H](CC(C)C)C(=O)N[C@@H](CC(C)C)C(=O)N[C@H](C=O)CCCNC(=N)N [leupeptin]
Mcl-1 protein; [3]
  prevention of down-regulation of Mcl-1 protein expression: could not
[2]; [4]
  prevention of EGFP release: did not prevent EGFP release

## aprotinin
Mcl-1 protein; [3]
  prevention of down-regulation of Mcl-1 protein expression: could not
[2]; [4]
  prevention of EGFP release: did not prevent EGFP release
